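Test compounds were applied to cells in 96-well plates for 48 hours at 5 doses. At the GI50, growth is halved.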 The source made the active and inactive calls. Cut-off read from the data, not from the text of the source: active = GI50 up to about 1.1 µM and inactive = higher.
Experiments:
Assay in all cases: growth of human tumour cells (NCI), 48 h
SNB-75 = tested on: SNB-75
SF-539 = tested on: SF-539
786-0 = tested on: 786-0
DU-145 = tested on: DU-145
MDA-MB-231 = tested on: MDA-MB-231
SN12C = tested on: SN12C
SR = tested on: SR
PC-3 = tested on: PC-3
RPMI-8226 = tested on: RPMI-8226
CCRF-CEM = tested on: CCRF-CEM
HOP-62 = tested on: HOP-62
NCI-H23 = tested on: NCI-H23
HOP-92 = tested on: HOP-92
BT-549 = tested on: BT-549
HT-29 = tested on: HT-29
K562 = tested on: K562
OVCAR-3 = tested on: OVCAR-3
UACC-257 = tested on: UACC-257
MDA-MB-435 = tested on: MDA-MB-435
RXF 393 = tested on: RXF 393
UO-31 = tested on: UO-31
SW-620 = tested on: SW-620
SF-268 = tested on: SF-268
Malme-3M = tested on: Malme-3M
NCI-H522 = tested on: NCI-H522
MCF7 = tested on: MCF7
MDA-N = tested on: MDA-N
M14 = tested on: M14
SNB-19 = tested on: SNB-19
MOLT-4 = tested on: MOLT-4
CAKI-1 = tested on: CAKI-1
OVCAR-8 = tested on: OVCAR-8
OVCAR-4 = tested on: OVCAR-4
A549 = tested on: A549
T47D = tested on: T47D
OVCAR-5 = tested on: OVCAR-5
COLO 205 = tested on: COLO 205
HCT-15 = tested on: HCT-15
IGROV-1 = tested on: IGROV-1
A498 = tested on: A498
SK-MEL-5 = tested on: SK-MEL-5
HCC 2998 = tested on: HCC 2998
NCI-H460 = tested on: NCI-H460
SF-295 = tested on: SF-295
NCI-H226 = tested on: NCI-H226
TK-10 = tested on: TK-10
SK-OV-3 = tested on: SK-OV-3
U-251 = tested on: U-251
SK-MEL-2 = tested on: SK-MEL-2
ACHN = tested on: ACHN
KM12 = tested on: KM12
NCI/ADR-RES = tested on: NCI/ADR-RES
EKVX = tested on: EKVX
UACC-62 = tested on: UACC-62
HCT-116 = tested on: HCT-116
Hs-578T = tested on: Hs-578T
LOX IMVI = tested on: LOX IMVI
SK-MEL-28 = tested on: SK-MEL-28

Q: How did the GI50 (SNB-75) turn out when `C/C=C\C1OC1(C)c1cc(=O)c2c(C)cc3c(c2o1)C(=O)c1c(O)c(C2CC(C)(N(C)C)C(OC(C)=O)C(C)O2)cc(C2CC(N(C)C)C(O)C(C)O2)c1C3=O` (stereo not drawn) was run?
A: The GI50 was < 3.75 nM (active).

Q: And the GI50 (SF-539)?
A: The GI50 was 4.33 nM (active).

Q: And the GI50 (786-0)?
A: Its GI50 is < 3.75 nM (active).

Q: And the GI50 (DU-145)?
A: Its GI50 is 4.05 nM (active).

Q: What about the GI50 (MDA-MB-231) of the same molecule?
A: The GI50 was 6.7 nM (active).

Q: And the GI50 (SN12C)?
A: Its GI50 is < 3.75 nM (active).

Q: What about the GI50 (SR) of the same molecule?
A: The GI50 was < 3.75 nM (active).

Q: And the GI50 (PC-3)?
A: The GI50 was 4.05 nM (active).

Q: And the GI50 (RPMI-8226)?
A: Its GI50 is < 3.75 nM (active).

Q: What about the GI50 (CCRF-CEM) of the same molecule?
A: Its GI50 is < 3.75 nM (active).

Q: And the GI50 (HOP-62)?
A: Its GI50 is < 3.75 nM (active).

Q: What about the GI50 (NCI-H23) of the same molecule?
A: Its GI50 is < 3.75 nM (active).

Q: And the GI50 (HOP-92)?
A: The GI50 was 5.93 nM (active).

Q: What about the GI50 (BT-549) of the same molecule?
A: Its GI50 is 5.96 nM (active).

Q: And the GI50 (HT-29)?
A: Its GI50 is < 3.75 nM (active).

Q: And the GI50 (K562)?
A: Its GI50 is < 3.75 nM (active).

Q: What about the GI50 (OVCAR-3) of the same molecule?
A: Its GI50 is 4.51 nM (active).

Q: And the GI50 (UACC-257)?
A: The GI50 was 9.84 nM (active).

Q: And the GI50 (MDA-MB-435)?
A: Its GI50 is 4.49 nM (active).

Q: And the GI50 (RXF 393)?
A: The GI50 was < 3.75 nM (active).

Q: And the GI50 (UO-31)?
A: The GI50 was 5.09 nM (active).

Q: And the GI50 (SW-620)?
A: Its GI50 is < 3.75 nM (active).

Q: What about the GI50 (SF-268) of the same molecule?
A: The GI50 was 5.16 nM (active).

Q: What about the GI50 (Malme-3M) of the same molecule?
A: Its GI50 is 12.4 nM (active).

Q: And the GI50 (NCI-H522)?
A: Its GI50 is < 3.75 nM (active).

Q: What about the GI50 (MCF7) of the same molecule?
A: The GI50 was < 3.75 nM (active).

Q: What about the GI50 (MDA-N) of the same molecule?
A: Its GI50 is 4.3 nM (active).

Q: What about the GI50 (M14) of the same molecule?
A: Its GI50 is < 3.75 nM (active).

Q: What about the GI50 (SNB-19) of the same molecule?
A: The GI50 was 6.21 nM (active).

Q: What about the GI50 (MOLT-4) of the same molecule?
A: Its GI50 is < 3.75 nM (active).

Q: What about the GI50 (CAKI-1) of the same molecule?
A: Its GI50 is < 3.75 nM (active).

Q: What about the GI50 (OVCAR-8) of the same molecule?
A: Its GI50 is < 3.75 nM (active).

Q: What about the GI50 (OVCAR-4) of the same molecule?
A: The GI50 was 4.61 nM (active).

Q: And the GI50 (A549)?
A: The GI50 was < 3.75 nM (active).

Q: What about the GI50 (T47D) of the same molecule?
A: The GI50 was 3.86 nM (active).

Q: What about the GI50 (OVCAR-5) of the same molecule?
A: Its GI50 is 5.46 nM (active).

Q: What about the GI50 (COLO 205) of the same molecule?
A: Its GI50 is < 3.75 nM (active).

Q: And the GI50 (HCT-15)?
A: The GI50 was 4.04 nM.

Q: And the GI50 (IGROV-1)?
A: Its GI50 is 5.69 nM (active).

Q: And the GI50 (A498)?
A: Its GI50 is 8.75 nM (active).

Q: And the GI50 (SK-MEL-5)?
A: Its GI50 is 4.14 nM (active).

Q: What about the GI50 (HCC 2998) of the same molecule?
A: Its GI50 is < 3.75 nM (active).

Q: What about the GI50 (NCI-H460) of the same molecule?
A: Its GI50 is < 3.75 nM (active).

Q: And the GI50 (SF-295)?
A: Its GI50 is < 3.75 nM (active).

Q: What about the GI50 (NCI-H226) of the same molecule?
A: Its GI50 is 4.61 nM (active).

Q: What about the GI50 (TK-10) of the same molecule?
A: The GI50 was 11.3 nM (active).

Q: What about the GI50 (SK-OV-3) of the same molecule?
A: Its GI50 is 4.32 nM (active).

Q: What about the GI50 (U-251) of the same molecule?
A: Its GI50 is < 3.75 nM (active).

Q: And the GI50 (SK-MEL-2)?
A: The GI50 was 4.63 nM (active).

Q: What about the GI50 (ACHN) of the same molecule?
A: The GI50 was < 3.75 nM (active).

Q: And the GI50 (KM12)?
A: The GI50 was 4.2 nM (active).

Q: What about the GI50 (NCI/ADR-RES) of the same molecule?
A: The GI50 was 4.09 nM (active).

Q: And the GI50 (EKVX)?
A: Its GI50 is 8.36 nM (active).

Q: What about the GI50 (UACC-62) of the same molecule?
A: The GI50 was < 3.75 nM (active).

Q: What about the GI50 (HCT-116) of the same molecule?
A: The GI50 was < 3.75 nM (active).

Q: What about the GI50 (Hs-578T) of the same molecule?
A: Its GI50 is 7.66 nM (active).

Q: And the GI50 (LOX IMVI)?
A: The GI50 was < 3.75 nM (active).

Q: What about the GI50 (SK-MEL-28) of the same molecule?
A: Its GI50 is 15.2 nM (active).
